Experimental data as given in patent US20220008425A1, “Pharmaceutical Composition for Treating B-Cell Lymphoma” (FUNDAN UNIVERSITY SHANGHAI CANER CENTER, priority 2018, published 2022).

Columns and labels:
[1] = system: CD20 and mCRPs (CD46, CD55, CD59) in RCHO-resistant NU-DUL-1 cells; test: FACS analysis of membrane expression of CD46, CD55, CD59 and CD20; assay type: cell-based, human
Method: (§1) After being washed with PBS, cells were incubated with fluorescein-conjugated antibody for 30 minutes, followed by washing and resuspension of cells in PBS. Flow cytometry analysis was performed on a cytomics FC500 MPL instrument (Beckman Coulter, Inc., Brea, Calif.) and FlowJo software (Ashland, Inc., OR) was used for analysis. Cells were then sorted according to their relative fluorescence intensity by using a MoFlo XDP sorter (Beckman Coulter Inc., Brea, Calif.).

[2] = system: CD20 and mCRPs (CD46, CD55, CD59) in RCHO-resistant LY8 cells; test: as above; assay type: cell-based, human
Method: as §1

NU-DUL-1-RCHO cells [3] = test: EdU cell proliferation assay; assay type: cell-based, human; details: 1 μM
Method: (§2) RCHO-resistant DLBCL cells were pretreated with duvelisib, abemaciclib, or AZD4547 at a concentration of 1 μM for 48 or 120 hours prior to EdU assay. For 120 hours of the study, the medium was replaced with a fresh medium containing 1 μM of inhibitor at 48 hours. EdU cell proliferation assay was performed by using a cell-light EdU Apollo643 in vitro flow cytometry kit (RiboBio Inc., Guangzhou, China) according to its instructions. Next, we assayed EdU staining positive cells on a Cytomics FC500 MPL flow cytometer (Beckman Coulter, Brea, Calif.).

LY8-RCHO cells [4] = test: EdU cell proliferation assay; assay type: cell-based, human; details: 1 μM
Method: as §2

NU-DUL-1-RCHO cells [5] = test: Aldefluor analysis (ALDH1+ cells); assay type: cell-based, human
Method: (§3) ALDH1 is a selectable marker for a variety of normal and cancer stem cells, including hematopoietic stem cells. Therefore, we assessed the number of cancer stem cells in hematopoietic malignancies by detecting ALDH1 positive cells. As previously described, we used an ALDEFLUOR™ kit (StemCell Technologies, Vancouver, BC, CA) to detect populations with high ALDH1 activity. Briefly, 1×10^6 cells were suspended in 1 mL of assay buffer containing 1 μM of BAAA, a substrate of […]. Suspended cells were then equally divided into two samples, one as a negative control and the other as a test sample. To form the negative control, […] of DEAB, a specific ALDH inhibitor, was added to one equally-divided sample. Cells were then incubated at 37° C. for 30 minutes prior to flow cytometry analysis.

LY8-RCHO cells [6] = test: Aldefluor analysis (ALDH1+ cells); assay type: cell-based, human
Method: as §3

[7] = system: SOX2 in tumor tissues grown from LY8-RCHO-Luc cells; test: SOX2 immunohistochemical staining of tumor tissues from the transplantation model; assay type: in vivo, SCID mice; details: tumors from LY8-RCHO-Luc cells; compared with saline control
Text: (§4) Construction of a transplantation model: we transduced LY8-RCHO cells and NU-DUL-1-RCHO cells with lentiviruses overexpressing the firefly luciferase gene to generate stable cells expressing firefly luciferase, referred to as LY8-RCHO-Luc cells and NU-DUL-1-RCHO-Luc cells, respectively. 8-week-old female SCID mice were purchased from SLAC (Shanghai laboratory animal center). The LY8-RCHO-Luc cells and NU-DUL-1-RCHO-Luc cells were resuspended in PBS prior to intraperitoneal injection of 1.5×10^7 cells per mouse. After intraperitoneal injection of the LY8-RCHO-Luc cells, mice were randomized into 6 groups (7 mice in every group) and given saline, R-CHOP, duvelisib, abemaciclib, R-CHOP+duvelisib, and R-CHOP+abemaciclib, respectively. Mice inoculated with the NU-DUL-1-RCHO-Luc cells were randomly divided into 6 groups (7 mice in every group), and were given saline, R-CHOP, duvelisib, AZD4547, R-CHOP+duvelisib, and R-CHOP+AZD4547, respectively. […] Tumor growth was monitored by bioluminescence at day 50 and day 90 after inoculation. For in vivo luminescence imaging, D-luciferin (Promega, Madison, Wis.) was intraperitoneally injected into mice (150 mg/kg). […] Luminescence images were captured with an exposure time of 30 seconds and the signal intensity of the tumor was measured by using Bruker MI software. The survival time of each mouse was recorded. […]
(§5) Tumor tissues from patients or animal models were fixed with 4% formalin, embedded in paraffin and sectioned. […] Immunoreactivity was then detected by using a GTVision III immunohistochemical detection kit (GK500705; Gene Tech Inc., Shanghai, China) according to its instructions. Quantitative scoring of immunostaining for SOX2, p-AKT, CDK6, FGFR1 and FGFR2 was performed on three independent sections under the microscope, according to the formula: score=3 (strong positive)×percentage+2 (medium positive)×percentage+1 (weak positive)×percentage+0 (negative)×percentage.

[8] = system: SOX2 in tumor tissues grown from NU-DUL-1-RCHO-Luc cells; test: as above; assay type: in vivo, SCID mice; details: tumors from NU-DUL-1-RCHO-Luc cells; compared with saline control
Text: as §4, §5

SMILES: C[C@H](Nc1ncnc2[nH]cnc12)c1cc2cccc(Cl)c2c(=O)n1-c1ccccc1 [duvelisib]
- membrane expression of CD20 [1]: significantly reduced
- membrane expression of the other three mCRPs (CD46, CD55, CD59) [1]: the other three mCRPs did not
- membrane expression of CD20 [2]: significantly reduced
- membrane expression of the other three mCRPs (CD46, CD55, CD59) [2]: the other three mCRPs did not
- cell proliferation (EdU incorporation) (NU-DUL-1-RCHO cells [3]; 48 hours): strongly prevented proliferation of LY8-RCHO and NU-DUL-1-RCHO cells
- cell proliferation (EdU incorporation) (NU-DUL-1-RCHO cells [3]; 120 hours): significantly promoted proliferation of cells at 120 hours
- cell proliferation (EdU incorporation) (LY8-RCHO cells [4]; 48 hours): strongly prevented proliferation of LY8-RCHO and NU-DUL-1-RCHO cells
- cell proliferation (EdU incorporation) (LY8-RCHO cells [4]; 120 hours): significantly promoted proliferation of cells at 120 hours
- proportion of ALDH1+ cells (CSCs) (NU-DUL-1-RCHO cells [5]): significantly reduced ALDH1+ subpopulations in LY8-RCHO and NU-DUL-1-RCHO cells
- proportion of ALDH1+ cells (CSCs) (LY8-RCHO cells [6]): significantly reduced ALDH1+ subpopulations in LY8-RCHO and NU-DUL-1-RCHO cells
- SOX2 expression level in tumor tissue (IHC) [7]: significantly reduced the expression levels of SOX2 compared with a saline control
- SOX2 expression level in tumor tissue (IHC) [8]: significantly reduced the expression levels of SOX2 compared with a saline control
